Patent US12281329B2, “Compositions and methods for immune cell modulation in adoptive immunotherapies” (Fate Therapeutics, Inc., priority 2016, dated 2025)

Test system: SKOV-3 cells
Assay: In vivo tumor clearing of luciferase-expressing SKOV-3 cells by modulated NK cells with Herceptin
Design: species or system NSG mice
Text: In vivo tumor clearing using Modulated NK cells: NSG mice were irradiated with 300 rads one day prior to intraperitoneal transplant of 2×10^5 luciferase-expressing SKOV-3 cells. 5 days after transplant of the ovarian carcinoma cells, mice were either left untreated, treated with Herceptin only, or treated with Herceptin, IL-15, and NK cells cultured for 7 days with IL-15 and CHIR99021. Luciferase-expressing SKOV-3 cells were imaged on day 21 using the IVIS imaging system.
Moreover, the in vivo tumor clearance ability of GSK3i cultured NK cells using the process provided herein was also tested. NSG mice were irradiated with 300 rads one day prior to intraperitoneal transplant of luciferase-expressing SKOV-3 cells. 5 days after the ovarian carcinoma cell transplant, the mice were either left untreated, treated with Herceptin only, or treated with Herceptin, IL-15, and NK cells cultured for 7 days with IL-15 and CHIR99021. […]
The in vivo tumor clearance ability of GSK3i cultured NK cells using the process provided herein was then compared to overnight primed CD3/CD19 depleted PBMC, and CD3/CD19 depleted PBMC cultured for 7 days with IL-15 and DMSO. […] Luciferase-expressing SKOV-3 cells were quantified by measuring luciferase activity using the IVIS imaging system.

## Cc1c[nH]c(-c2cnc(NCCNc3ccc(C#N)cn3)nc2-c2ccc(Cl)cc2Cl)n1 [CHIR99021]
100 ug Herceptin + 2.5×10^6 cells, vs overnight primed and 7 day IL-15 + DMSO
  in vivo SKOV-3 ADCC killing (luciferase activity): highly and consistently effective
NK cells cultured 7 days with IL-15 and CHIR99021, plus Herceptin and IL-15, imaged Day 21 post-transplant
  tumor-suppressive effects of Herceptin antibody treatment: enhances
